Measured values published in PubChem BioAssay (NCI).
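These data come from cells grown in 96-well plates and exposed to compound for 48 hours at five concentrations. GI50 is the concentration that inhibits growth by half. The concentration for full growth arrest is given as TGI.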

Tests used:
Assay in all cases: inhibition of tumour cell growth, NCI panel, 48 h
[1] = tested on: KM12 colon
[2] = tested on: T-47D breast
[3] = tested on: BT-549 breast
[4] = tested on: OVCAR-5 ovarian
[5] = tested on: A498 renal
[6] = tested on: IGROV1 ovarian
[7] = tested on: OVCAR-3 ovarian
[8] = tested on: RPMI-8226 leukemia
[9] = tested on: SK-MEL-2 melanoma
[10] = tested on: HS 578T breast

SMILES	TGI [1] [µM]	TGI [2] [µM]	TGI [3] [µM]	TGI [4] [µM]	TGI [5] [µM]	TGI [6] [µM]	TGI [7] [µM]	TGI [8] [µM]	TGI [9] [µM]	TGI [10] [µM]	GI50 [1] [µM]	GI50 [2] [µM]	GI50 [4] [µM]	GI50 [5] [µM]	GI50 [6] [µM]	GI50 [7] [µM]	GI50 [8] [µM]	GI50 [9] [µM]
COC1=CC(=O)CC(C)C12Oc1c(Cl)c(OC)cc(OC)c1C2=O (configuration not stated)	> 100	> 100	> 89	> 100	> 93.8	> 100	> 100	> 100	> 100	> 80								
Cc1cccc(N2C(=O)C3c4[nH]c5ccccc5c4C4CCC(C(C)(C)C)CC4C3C2=O)c1 (configuration not stated)	25.2	> 100	33.5	35.2	25.8	16.4	27.4	25.8	34.4	29.2								
CC(=O)Nc1c(S(=O)(=O)c2ccccc2)c(C)c(C)n1Cc1ccccc1	> 100		> 100	> 100	> 100	> 100	> 100	> 100	> 100	> 100								
O=c1oc2ccccc2cc1-c1cn2c(n1)sc1ccccc12	> 100	> 100	> 100			> 100	> 100	> 100	> 100	> 100								
c1csc(-c2ccsc2-c2cccs2)c1	> 100	> 100		> 100	> 100	> 100	> 100	66.8		> 100								
O=C(O)c1cnc(-n2[nH]c3c(c2=O)CCCC3)[nH]c1=O	> 100	> 100	> 100	> 100	> 100	> 100		> 100	> 100	> 100								
Cc1ccc(C2=C(C#N)C(N)OC3=C2COc2ccccc23)cc1 (configuration not stated)	> 100		> 100		50.2	> 100	41.9	> 100	> 100									
S=c1[nH]n2c(CCCCCCCCc3nnc4sc(=S)[nH]n34)nnc2s1	> 100	> 100	> 100	> 100	> 100	> 100	> 100	> 100	> 100									
CCOC(=O)C(Cc1ccc(OC(=O)OC(C)(C)C)cc1)NC(=O)OC(C)(C)C (configuration not stated)	> 100	70.7	> 100	> 100		> 100	> 100		> 100	> 100								
CC(=O)Oc1c(N2CCCCC2)c(C(=O)c2ccccc2)c(O)c2ccn(N(C)C)c12	27.1		42.7	> 100	29.1		74.7	44.8	54.6	66.8								
OCCN(/N=C\c1ccc2ccccc2c1)C1=NCCN1	> 100	> 100	> 100	72.2		> 100	> 100	60.8	42.6	> 100								
O=C(/C=C(\S/C=C(/c1ccccc1)N1CCn2c(C(=O)c3ccccc3)c(C(=O)c3ccccc3)c(C(=O)c3ccccc3)c21)C(=O)c1ccccc1)c1ccccc1	> 10	> 10	> 10	> 10		> 10	> 10	> 10	> 10	> 10								
Cn1c(CO)ccc1-c1ccc(-c2ccc[se]2)[se]1	> 100	> 100	> 81.4		0.187			> 71.6	> 100	> 100								
CCCCCCCCCCCCCCCCOP(=O)(O)OCC(N)C(=O)O (configuration not stated)	30.2	> 100		45.1	34.8	34.7	41.1	47.9	40.5	40.8								
O=C(CSc1nc(-c2ccccc2)c(-c2ccccc2)[nH]1)N/N=C/c1ccc(O)cc1	55.4					95.7	48.4	60.6	67.2									
Nc1[nH]nc2nc3ccccc3nc12			> 100	> 100	> 100	99.2	> 100	> 100	> 100	> 100								
CC(C)(C)OC(=O)CN1CCNCCN(CC(=O)OC(C)(C)C)CCNCC1	> 100		> 100	> 100	> 100	> 100	> 100	> 100	> 100	> 100								
COc1c2c(c3ccccc3c1O)C1C=CC2C1 (configuration not stated)	31.4			33.9		39	27.6	> 100	31.5									
CC(C)=CCc1[nH]c2ccccc2c1C1=C(O)C(=O)C(c2c(CC=C(C)C)[nH]c3ccccc23)=C(O)C1=O	2.82	25	1.59	8.44	2.72	3.45	3.92		3.95	73.8								
CSc1ccn(C2CC(F)C(CO)O2)c(=O)n1 (configuration not stated)	> 100	> 100	> 100	> 100	> 100	> 100	> 100		> 100	> 100								
Cc1nc(C)c(N2CCNCC2)c(=O)[nH]1	> 100	> 100	> 100		> 100	> 100	> 100	> 100		> 100								
CCOC(=O)NC(OC)(C(F)(F)F)C(F)(F)F			> 100		> 100	> 100	> 100	> 100		> 100								
O=C(O)c1ccc(C2=Cc3cc(Cl)ccc3OC2)cc1	> 100			> 100	> 100	> 100	> 100	> 100	> 100									
CC(=O)Oc1c2c(c3n(c1=O)CCCC3)C(=O)N(c1ccccc1)C2=O	> 100	> 100	> 100	> 100		> 100	> 100		> 100	> 100								

SMILES	TGI [1] [µM]	TGI [2] [µM]	TGI [3] [µM]	TGI [4] [µM]	TGI [5] [µM]	TGI [6] [µM]	TGI [7] [µM]	TGI [8] [µM]	TGI [9] [µM]	TGI [10] [µM]	GI50 [1] [µM]	GI50 [2] [µM]	GI50 [4] [µM]	GI50 [5] [µM]	GI50 [6] [µM]	GI50 [7] [µM]	GI50 [8] [µM]	GI50 [9] [µM]
O=c1ccn(C2OC(CO)C(O)C2F)c(=O)n1Cc1ccccc1 (configuration not stated)	> 100	> 100		> 100		> 100	> 100	> 100		> 100								
COc1ccc2c3c([nH]c2c1)CCN(CCCC(=O)c1ccc(F)cc1)C3	34.4	37		27.1	29.7	32.7	32.9	37.3	32	31.7								
COC(=O)N[C@H](C(=O)O)C(C)O[Si](C)(C)C(C)(C)C (some centres not stated)	> 100	> 100	> 100	> 100	> 100	> 100	> 100	> 100		> 100								
NC(CCOCCP(=O)(O)O)C(=O)O (configuration not stated)	> 100	> 100	> 100	> 100		> 100	> 100	> 100	> 100	> 100								
NNC(=S)NCCNC(=S)NN	> 100	> 100	> 100	> 100		> 100	> 100	> 100	> 100	> 100								
CCN(CC)CCN1C(=O)c2c(c3c4ccccc4[nH]c3c3ccc4ccccc4c23)C1=O	3.22	38.9		3.09	2.61	2.83	3.03	5.65	6.5		1.74	13	1.64	1.32	1.43	1.65	2.01	2.51
O=C1CC[C@@]2(O)[C@H]3Cc4ccc(-c5ccccc5)c5c4[C@@]2(CCN3CC2CC2)[C@H]1O5	36.6	35.7	31.3	35.4	36.6	> 100	33.6	47.8	33.7									
CCOC(=O)c1nc2ccc(C(F)(F)F)cc2nc1Nc1ccc(Cl)c(Cl)c1	> 100	> 100	> 100	> 100	> 100	> 100	> 100	> 100		> 100								
C=C(NC(=O)C(=C)NC(=O)c1csc(C2=NC3c4csc(n4)C4NC(=O)c5csc(n5)C(C(C)(O)C(C)O)NC(=O)C5CSC(=N5)/C(=C/C)NC(=O)C(C(C)O)NC(=O)c5csc(n5)C3(CC2)NC(=O)C(C)NC(=O)C(=C)NC(=O)C(C)NC(=O)C(C(C)CC)NC2C=Cc3c(C(C)O)cc(nc3C2O)C(=O)OC4C)n1)C(N)=O (configuration not stated)				> 51.4	3.59	63.8	> 25.8	6.28	4.12									
COc1cc(OC)c2c3c(OC)cc(OC)c4c(=O)c(O)c(C[C@@H](C)O)c(c5c(C[C@@H](C)O)c(O)c(=O)c1c25)c43	83.2	44.5	46	> 100	71.8	49.2	9.4		68									
C/C=C1\CN(C(=O)OC(C)(C)C)C1C(=O)OC(C)(C)C (configuration not stated)			> 100	> 100	> 100	> 100	> 100	> 100	> 100	> 100								
NC1=NS(=O)(=O)Nc2nc(-c3ccccc3)[nH]c21	> 100			> 100		> 100	> 100	> 100	> 100									
COC(=O)c1c(C#N)c(N)nc2c1CCC2	> 100	> 100	> 100	> 100	> 100	> 100		> 100	> 100	> 100								
CC(=O)Oc1c(-c2ccccc2)sc2ccccc12	52.3	44.5	50	61.5	34.5	30.7		24.8	31.4	40.6								
CC1(C)CCC(C)(C)C1C(=O)NC(O)C(=O)O (configuration not stated)		> 100		> 100	> 100	> 100		> 100	> 100	> 100								
O=C(CCC=C(S(=O)(=O)c1ccccc1)S(=O)(=O)c1ccccc1)c1ccccc1	> 100	44.4	18.2	24	31.7	31	17.4		9.7	31								
CCOC(=O)Nc1ccc2c(c1)c(CCCCCCc1nc3ccccc3c3ccc(NC(=O)OCC)cc13)nc1ccccc12	> 100	> 100		> 100	67.3	> 100	58.7	> 100	71.2	> 100								
O=C(c1ccccc1)C1S(=O)(=O)OCCOS1(=O)=O	> 100					> 100	> 100	> 100	> 100									
COc1ccc([C@@H]2CC(=O)N2)cc1	> 100			> 100	> 100	> 100		> 100	> 100									
O=C(NC(=O)c1cc(-c2ccccc2)n[nH]1)c1ccccc1	> 100	> 100	> 100	> 100	> 100	> 100	> 100		> 100	> 100								
CCOC(=O)C(Cc1c[nH]c2cc([N+](=O)[O-])ccc12)NS(=O)(=O)c1ccc2ccccc2c1 (configuration not stated)	30.8				80	48	31.5	> 100	35.1									
Cc1ccc(-c2nc(N/N=C/c3ccc(O)cc3)c3ccccc3n2)cc1	41.4	26	> 100	61.9		> 100	> 100	> 100	32.7	> 100								
C=C1C(O)C[C@H](OC(C)=O)[C@]2(C)C1C(OC(C)=O)[C@]1(C(C)(C)O)CC(O)C(C)=C1[C@@H](OC(=O)c1ccccc1)C2OC(C)=O (some centres not stated)	> 10	> 10		> 10	> 10	> 10	> 10	> 10	> 10	> 10								
